Laboratory results reported in paper PMC7857870, “Design and Synthesis of 4-O-Podophyllotoxin Sulfamate Derivatives as Potential Cytotoxic Agents” (Evidence-based Complementary and Alternative Medicine : eCAM, 2021).
Entries after “also recorded” stand apart in the source; their conditions may differ.

Legend:
MCF7 cells = assay: Annexin V FITC/PI apoptosis assay (flow cytometry); assay type: cell-based, human; details: 24 h treatment, 0.5-5.0 µM, dose-dependent
Experimental: Annexin V FITC/PI assay was used to evaluate possible ability to induce apoptosis. MCF7 cells were cultured in 6 well plates (1 × 10^5 cells/well) overnight at 37°C. Compounds 2, 3, and 7 were used to treat cells (0, 0.5, 1.0, and 5.0 µM). After 24 h, the supernatant of treated cells was collected in tubes and kept in ice, and cells were trypsinized and incubated at 37°C before being added to the tubes. MCF7 cells were centrifuged (2000 rpm) and washed with PBS (x1), and pellets resuspended in the binding buffer (100 μL) and annexin V FITC (10 μL). Tubes were incubated at room temperature in dark for 20 min, before adding binding buffer (400 μL) and 10 μL propidium iodide (PI). Analysis was performed by flow cytometry (BC, FC500, USA). Different cell populations (early apoptotic, late apoptotic, and necrotic cells) were identified by annexin V and PI staining.

[1] = test system: human colon adenocarcinoma (HT29); assay: MTT cytotoxicity assay, 72 h; assay type: cell-based; details: HT-29, MTT 72 h, read-out: IC50 ± SD, HT29
Experimental: (§1) Three cancer cell lines, human breast adenocarcinoma (MCF7), human ovary adenocarcinoma (A2780), and human colon adenocarcinoma (HT29), in addition the normal human fetal lung fibroblast (MRC5), were used. All cell lines were obtained from the ATCC. The three cancer cells were subcultured in RPMI-1640 media (10% FBS), while MRC5 was maintained in Eagles minimum essential medium (EMEM, 10% FBS), all at 37°C, 5% CO2, and 100% relative humidity.
(§2) As previously reported, the cytotoxicity of the six compounds, including podophyllotoxin as reference, was evaluated by the MTT assay. The three cell lines and one normal fibroblast cells were separately cultured in 96-well (3 × 10^3/well) and incubated at 37°C overnight. Final compound concentrations are as follows: 0, 0.005, 0.050, 0.500, 5.000, and 25.000 μM (DMSO 0.1%; n = 3). Plates were incubated for 72 h, followed by addition of MTT to each well. Plates were incubated for 3 hr, supernatant was aspirated, and DMSO was added to each well. The absorbance was read on multiplate reader. The optical density of the purple formazan A550 is proportional to the number of viable cells. Compound concentration causing 50% inhibition (IC50) compared to control cell growth (100%) was determined. GraphPad Prism version 5.00 for Windows, GraphPad Software, San Diego California, USA, was used for analysis.

[2] = test system: human ovary adenocarcinoma (A2780); assay: MTT cytotoxicity assay, 72 h; assay type: cell-based; details: MTT 72 h, read-out: IC50 ± SD, A2780
Experimental: as §1, §2

[3] = test system: human breast adenocarcinoma (MCF7); assay: MTT cytotoxicity assay, 72 h; assay type: cell-based; details: MTT 72 h, read-out: IC50 ± SD, MCF7
Experimental: as §1, §2

[4] = test system: normal human fetal lung fibroblast (MRC5); assay: MTT cytotoxicity assay, 72 h, normal cells; assay type: cell-based; details: MTT 72 h, normal fibroblasts, read-out: IC50 ± SD, MRC5
Experimental: as §1, §2

MCF7, A2780, and HT29 = assay: MTT cytotoxicity assay, text summary over the three cancer cell lines and selectivity versus MRC5; assay type: cell-based, human; details: for IC50: Homo sapiens, MTT, range over three cancer cell lines, read-out: activity (IC50) against the three cell lines MCF7, A2780 and HT29; for selectivity against MCF7, A2780 and HT29 compared to MRC5 cells: cancer cells versus normal MRC5 cells
Experimental: as §1, §2

[5] = Stability observation of the prepared compound; assay type: physicochemical; details: excluded from the biological assay

Structure (SMILES) | increase of early apoptotic MCF7 cell population compared to control (MCF7 cells) | IC50 [1] | IC50 [2] | IC50 [3] | IC50 [4] | IC50 (MCF7, A2780, and HT29) | selectivity against MCF7, A2780 and HT29 compared to MRC5 cells (MCF7, A2780, and HT29) | melting point | stability of the compound [5]
COc1cc(C2c3cc4c(cc3C(OS(N)(=O)=O)C3COC(=O)C23)OCO4)cc(OC)c1OC (centres unmarked) [Compound 2, 4-O-Podophyllotoxin Sulfamate] | 1.7–2.2 fold | 1.34 ± 0.637 µM | 0.729 ± 0.363 µM | 0.648 ± 0.087 µM | 7.51 ± 1.51 µM | ≤ 1 µM | less cytotoxic against MRC5 cells; also recorded: moderate selectivity |  | 
COc1cc(C2c3cc4c(cc3C(OS(=O)(=O)Nc3ccc5cc6ccccc6cc5c3)C3COC(=O)C23)OCO4)cc(OC)c1OC (centres unmarked) [Compound 7, 4-N-(2-Anthracenyl)podophyllotoxin Sulfamate] | 1.7–2.2 fold | 5.08 ± 0.673 µM | 3.65 ± 1.94 µM | 2.12 ± 0.989 µM | 9.08 ± 1.01 µM | 2.12 to 5.08 µM |  |  | 
COc1cc(C2c3cc4c(cc3C(OS(=O)(=O)Nc3ccc(F)cc3)C3COC(=O)C23)OCO4)cc(OC)c1OC (centres unmarked) [Compound 6, 4-N-(4-Flourophenyl)podophyllotoxin Sulfamate] |  |  |  |  |  |  |  | 220 °C | unstable
COc1cc(C2c3cc4c(cc3C(OS(=O)(=O)NCc3ccccn3)C3COC(=O)C23)OCO4)cc(OC)c1OC (centres unmarked) [Compound 3, 4-N-(2-Pyridinylmethyl)podophyllotoxin Sulfamate] | 1.7–2.2 fold | 0.222 ± 0.098 µM | 0.179 ± 0.01 µM | 0.15 ± 0.06 µM | 2.03 ± 0.25 µM | 0.15 to 0.22 µM | 9.1–13.5 fold |  | 
COc1cc([C@@H]2c3cc4c(cc3[C@H](O)[C@H]3COC(=O)[C@H]23)OCO4)cc(OC)c1OC [Podophyllotoxin] |  | 0.002 ± 0.001 µM | 0.007 ± 0.001 µM | 0.004 ± 0.001 µM | 0.043 ± 0.06 µM |  |  |  | 
COc1cc(C2c3cc4c(cc3C(OS(=O)(=O)Nc3ccccn3)C3COC(=O)C23)OCO4)cc(OC)c1OC (centres unmarked) [Compound 5, 4-N-(2-Pyridinyl)podophyllotoxin Sulfamate] |  | 1.048 ± 0.005 µM | 0.132 ± 0.012 µM | 0.184 ± 0.052 µM | 0.047 ± 0.042 µM |  | no selectivity | 230 °C (dec.) | 
COc1cc(C2c3cc4c(cc3C(OS(=O)(=O)NCCc3ccccn3)C3COC(=O)C23)OCO4)cc(OC)c1OC (centres unmarked) [Compound 4, 4-N-(2-Pyridinylethyl)podophyllotoxin Sulfamate] |  | 0.228 ± 0.075 µM | 0.456 ± 0.18 µM | 0.212 ± 0.01 µM | 0.048 ± 0.003 µM |  | no selectivity | 225 °C | 
